Measurements as given in patent publication US20050256077A1, “Gastrointestinal stem cells and uses thereof” (priority 2004, published 2005).

Experiments:
[1] = system: crypts of the mouse small intestine; details: cited from earlier work; for i.p. dose that causes sterilization of 50% of crypts: dose-response data of Moore (1985)
bone marrow = details: administered systemically (Goodman and Gilman, 1975); cited from earlier work
intestinal crypts [2] = assay: Model I: luminal delivery of cytotoxic drugs to clamped jejunal segment, crypt apoptosis by histology; format: in vivo, mouse; details: for apoptosis in experimental segments / apoptosis in upstream segments: luminal delivery to clamped jejunal segment for 4 hr, 20 mg/kg BW; for apoptosis in experimental segments: apoptotic bodies in H & E sections; for apoptosis in upstream segments: segment immediately upstream
Excerpt: A surgical model was developed that is simple and rapid enough to allow appropriate numbers of animals to be studied in a reasonable time period. To this end, a procedure was developed in which a 1 cm piece of jejunum is flushed and then clamped (with microvascular serrefines), the drug or vehicle was delivered to the clamped segment via a 27 gauge needle, the bowel is returned to the abdominal cavity and the incisions in both the peritoneum and the skin are sutured closed. The animal was allowed to regain consciousness for 4-6 hr. At the end of this time there was another brief isofluorane anesthesia, during which the original incisions are opened and the clamps are removed. In addition, at this time the location of the clamps was indicated by a piece of 5-0 silk.
Various doses of DOX and Bleomycin were delivered to clamped segments for 4 hr, then tissue from the experimental segment as well as a segment immediately upstream was collected for histology. Tissue sections were stained with H & E, and apoptosis was assessed by the presence of apoptotic bodies. For quantifying apoptotic cells, 10 crypts per animal (n=3) were selected and scored by a skilled artisan blinded to the experimental conditions. […] Thus, Bleomycin was being absorbed into the circulation and, thus, affecting the entire intestine. In contrast, DOX appears to be capable of local action, thus creating a suitable model for subsequent experiments.
In order to verify that luminally delivered DOX was affecting the stem cell region, the position of apoptotic cells within the crypt was scored. […] This is very similar to the pattern that has been previously reported following IP delivery of DOX (Ijiri and Potten, 1987).

i.p. LD50 (literature) = format: in vivo; details: mice
[3] = mice; cited from earlier work
[4] = cited from earlier work
[5] = cited from earlier work; remark: listed apart in the source
intestinal crypts [6] = format: in vivo, mice
Protocol: The following model is preferable for luminal delivery of stem cell preparations, particularly wherein a second clamping procedure, such as the day after the damage, is preferable. As there are already published studies on IP delivery of DOX to mice (Ijiri and Potten, 1987; Moore, 1985), minimal additional studies were needed to establish this model. However, although it was already known that an IP dose of 20 mg/kg/BW DOX elicits apoptosis predominantly in the stem cell zone (Ijiri and Potten, 1987) and ablates approximately 50% of the stem cells (Moore, 1985), a complete time course of apoptosis has not been reported. Considering the nature of the timing of stem cell delivery, an apoptosis time course was performed in FIG. 6. […] In contrast, gross morphologic damage is not seen until 72 hr and appears maximal by 96 hr (FIG. 7). By 120 hr the beginning of crypt regeneration from the remaining stem cells is apparent (not shown). Based on these findings, after DOX the optimal time for luminal delivery of stem cells is 6 hr. […] At the same time, a significant proportion of the endogenous stem cells have been ablated, creating an opportunity for the exogenous cells to engraft. The clamping procedure after IP delivery of DOX has been performed successfully, and no evidence was found of gross bleeding into the clamped segment. There is, however, significant morbidity after the IP DOX. For example, body weights initially fall to a similar extent to that after luminal DOX, but in the case of IP DOX they never recover. Although our 10-day survival data after IP DOX is 100%, the literature predicts 40-50% mortality over the next 2 weeks (Oredipe et al., 2003). However, if the myelosuppressive effects of DOX are countered by administration of the drug Swainsonine (Sigma-Aldrich), for example the mice can be maintained until at least 70 days with only 36% mortality (Oredipe et al., 2003).

[7] = cited from earlier work; remark: listed apart in the source
[8] = mouse, in vivo; cited from earlier work

In the case of Bleomycin, the “i.p. dose that causes sterilization of 50% of crypts” value [1] is given as 60 mg/kg, the “toxicity to bone marrow” value (bone marrow) is given as “minimal toxicity to bone marrow” and the “apoptosis in experimental segments” value (intestinal crypts [2]) is given as “caused apoptosis”. The “apoptosis in upstream segments” value (intestinal crypts [2]) was “caused apoptosis in both experimental segment and upstream segments”, the “i.p. LD50 relative to i.p. dose causing sterilization of 50% of intestinal crypts” value (i.p. LD50 (literature)) was ~4 fold and the “i.p. LD50” value [3] was 210 mg/kg. For the same compound, the “solubility in normal saline” value [4] was “soluble in normal saline”.
For `O[C@H]1[C@H]2[C@H](O)CCCN2C[C@H]1O` [Swainsonine], the “mortality until at least 70 days” value ([5]; Swainsonine given to counter myelosuppressive effects of DOX) is given as 36%.
In the case of `COc1cccc2c1C(=O)c1c(O)c3c(c(O)c1C2=O)C[C@@](O)(C(=O)CO)C[C@@H]3O[C@H]1C[C@H](N)[C@H](O)[C@H](C)O1` [DOX, doxorubicin], the “small intestinal crypts sterilized” value ([1]; IP 20 mg/kg BW (Moore, 1985)) is given as “approximately 50%”, the stem cells ablated ([1]; IP dose of 20 mg/kg/BW (Moore, 1985)) is given as “approximately 50%” and the “i.p. dose that causes sterilization of 50% of crypts” value [1] is given as 15 mg/kg. For the same compound, the “time of apoptosis peak” value (intestinal crypts [6]; IP DOX 20 mg/kg BW) was 6 h, the “time of beginning of crypt regeneration from remaining stem cells” value (intestinal crypts [6]; IP DOX 20 mg/kg BW) was ≤ 120 h and the “time of maximal gross morphologic damage” value (intestinal crypts [6]; IP DOX 20 mg/kg BW) was ≤ 96 hr. For the same compound, the “time until gross morphologic damage is seen” value (intestinal crypts [6]; IP DOX 20 mg/kg BW) was 72 hr, the “apoptosis by 24 hr” value (intestinal crypts [6]; IP DOX 20 mg/kg BW, 24 hr) was “greatly reduced” and the body weights (intestinal crypts [6]; mouse, in vivo, ip) was “never recover”. For the same compound, the 10-day survival (intestinal crypts [6]; mouse, in vivo, ip, 10 day) was 100%, the “removed by the liver in a single pass” value [7] was 60% and the “damage to the basement membrane or to the underlying stromal tissue” value (intestinal crypts [2]; luminal DOX, light and EM levels) was “no evidence of damage”. For the same compound, the “apoptosis in experimental segments” value (intestinal crypts [2]) was “significant apoptosis”, the “apoptosis in upstream segments” value (intestinal crypts [2]) was “minimal effects” and the half-life [8] was 35 min. The “mortality over the next 2 weeks” value ([5]; after IP DOX, beyond 10 days, literature prediction) was 40-50% and the “solubility in normal saline” value [4] was “soluble in normal saline”.
